Experimental data: ChEMBL document CHEMBL1151036, “Synthesis and HIV-1 inhibition of novel benzimidazole derivatives” (Bioorg Med Chem Lett, 1995)

What was measured:
[1] = tested on: C8166; assay: Compound was tested for toxicity against HIV-111B in C8166 cells; type: functional; settings: Homo sapiens, read-out: TC50 (the source's name)
[2] = tested on: C8166; assay: Inhibitory activity against HIV-111B in C8166 cells; type: functional, cell-based; settings: Homo sapiens
[3] = tested on: C8166; assay: Compound was tested for toxicity against HIV-111B in C8166 cells; value ranges from 20-30 uM; type: functional; settings: Homo sapiens, read-out: TC50 (the source's name)
[4] = Selectivity ratio of TC50 to that of EC50; value ranges from 12.5-19; type: functional
[5] = biological target: Human immunodeficiency virus type 1 reverse transcriptase (Human immunodeficiency virus 1) (UniProt Q72547); assay: Concentration required for inhibition of HIV-1 reverse transcriptase (RT)
[6] = biological target: Human immunodeficiency virus type 1 reverse transcriptase (Human immunodeficiency virus 1) (UniProt Q72547); assay: Compound was tested for % inhibition of HIV-1 reverse transcriptase (RT); settings: concentration not given here
[7] = Selectivity ratio of TC50 to that of EC50; type: functional
[8] = Selectivity ratio of TC50 to that of EC50; value ranges from 33-50; type: functional

Row | Structure (SMILES) | EC50 [2] | Concentration [5] | inhibition [6] | CC50 [1] | CC50 [3] | Ratio [4] | Ratio [7] | Ratio [8]
1 | Cc1cn([C@H]2C[C@H](N=[N+]=[N-])[C@@H](CO)O2)c(=O)[nH]c1=O [ZIDOVUDINE] | – | – | – | > 1000 µM | – | – | – | –
2 | CCCOn1c(CC)nc2ccc(OC)cc21 | 3.2 µM | – | – | 100 µM | – | – | 31 | –
3 | CCCn1c(SC)nc2c(CBr)cccc21 | 8 µM | – | – | 80 µM | – | – | 10 | –
4 | CCCOn1c(CC)nc2c(C)cccc21 | 6 µM | 100 µM | 66% | 1000 µM | – | – | 167 | –
5 | CCCn1c(SC)nc2c(C)cccc21 | 4 µM | – | – | 100 µM | – | – | 25 | –

More lines, main results first:

Row | EC50 [2] | Concentration [5] | inhibition [6] | Structure (SMILES) | CC50 [1] | CC50 [3] | Ratio [4] | Ratio [7] | Ratio [8]
6 | 1.6 µM | – | – | CCCOn1c(CC)nc2ccc(C)cc21 | – | 20 µM | 12.5 | – | –
7 | 0.002 µM | 0.16 µM | 50% | CC(C)=CCN1Cc2cc(Cl)cc3[nH]c(=S)n(c23)C[C@@H]1C | 62 µM | – | – | 31000 | –
8 | 0.6 µM | 10 µM | 50% | CCCOn1c(CC)nc2ccc(Cl)cc21 | 40 µM | – | – | 67 | –
9 | 2 µM | – | – | CCCOn1c(CC)nc2ccccc21 | 100 µM | – | – | – | 33
